Assay results as given in US9730944B2, “Antiviral activity of novel bicyclic heterocycles” (priority 2010, dated 2017).
In brackets after ≈: the same amount, converted by molar mass. Like-named read-outs stand apart in the source and are kept apart here.

What was measured:
[1] = test system: genotype 1a H-77 replicon; test: HCV-1a replicon potency in RLuc-1 cells, bioluminescence; type: cell-based; settings: for HCV-1a Replicon Selectivity Index: CC50/EC50, genotype 1a replicon; for EC50: Hepatitis C virus, 72 h, read-out: HCV-1a Replicon EC50 (μM)
poliovirus (PV type 1) = test: microbe, parasite or virus in culture; type: cell-based; settings: Enterovirus C, read-out: PV-1 EC50
poliovirus (PV type 2) = test: microbe, parasite or virus in culture; type: cell-based; settings: Enterovirus C, read-out: PV-2 EC50
poliovirus (PV type 3) = test: microbe, parasite or virus in culture; type: cell-based; settings: Enterovirus C, read-out: PV-3 EC50
in vitro [2] = settings: African green monkey, PV CC50
in vitro [3] = settings: human, PV CC50
[4] = Cytotoxicity in HCV-1a replicon cells, Promega CellTiter-Glo cell viability assay
[5] = Cytostatic/cytotoxic effect in Hela Rh cells (rhinovirus methodology, MTS); settings: human, CC50, Hela Rh cells
HIV-1 strain IIIB = test: Inhibition of replication of HIV-1 (IIIB strain) in MT-4 cells, MTT assay; type: cell-based; settings: Human immunodeficiency virus 1, IIIB, MT4, 120 h, read-out: EC50 (μM) HIV-1 (IIIB)
HIV-2 strain (ROD) = test: Inhibition of replication of HIV-2 (ROD strain) in MT-4 cells, MTT assay; type: cell-based; settings: Human immunodeficiency virus 2, MT4, 120 h, read-out: EC50 (μM) HIV-2 (ROD)
in vitro [6] = settings: human
[7] = MT-4 cells, MTT assay, five days after infection, 50% protection from cytopathic effect

Structure (SMILES): Nc1nc(N2CCN(C(=O)COc3ccc(Cl)cc3)CC2)c2nc(C3CCCCC3)oc2n1 [Example 187, 5-amino-2-cyclohexyl-7-[4-(4-chlorophenoxyacetyl)piperazin-1-yl]oxazolo[5,4-d]pyrimidine]
- HCV-1a Replicon Selectivity Index [1]: 1.3
- EC50 [1]: 19 µM
- EC50 (poliovirus (PV type 1); HeLa): > 50 µg/mL
- EC50 (poliovirus (PV type 1); Vero): > 50 µg/mL
- EC50 (poliovirus (PV type 2); HeLa): > 50 µg/mL
- EC50 (poliovirus (PV type 2); Vero): ≥ 50 µg/mL
- EC50 (poliovirus (PV type 3); HeLa): > 50 µg/mL
- EC50 (poliovirus (PV type 3); Vero): > 50 µg/mL
- CC50 (in vitro [2]): 118 µg/mL (≈ 250 µM)
- CC50 (in vitro [3]): > 50 µg/mL
- CC50 at 72 h [4]: 24.3 µM

Structure (SMILES): Nc1nc(N2CCN(C(=O)COc3ccc(Cl)cc3)CC2)c2nc(CCc3ccccc3)oc2n1 [Example 189, 5-amino-2-(2-phenylethyl)-7-[4-(4-chlorophenoxyacetyl)piperazin-1-yl]oxazolo[5,4-d]pyrimidine]
- HCV-1a Replicon Selectivity Index [1]: 2.0
- EC50 [1]: 20.6 µM
- EC50 (poliovirus (PV type 1); HeLa): 1.14 µg/mL (≈ 2.31 µM)
- EC50 (poliovirus (PV type 1); Vero): 0.86 µg/mL (≈ 1.74 µM)
- EC50 (poliovirus (PV type 2); HeLa): 1.15 µg/mL (≈ 2.33 µM)
- EC50 (poliovirus (PV type 2); Vero): 0.4 µg/mL (≈ 0.811 µM)
- EC50 (poliovirus (PV type 3); HeLa): > 50 µg/mL
- EC50 (poliovirus (PV type 3); Vero): 1.19 µg/mL (≈ 2.41 µM)
- CC50 (in vitro [2]): > 150 µg/mL
- CC50 (in vitro [3]): > 50 µg/mL
- CC50 at 72 h [4]: 40.5 µM

Structure (SMILES): Nc1nc(N2CCN(C(=O)COc3ccc(Cl)cc3)CC2)c2nc(-c3ccc(F)cc3)[nH]c2n1 [Example 389, 1-(4-(2-amino-8-(4-fluorophenyl)-9H-purin-6-yl)piperazin-1-yl)-2-(4-chlorophenoxy)ethanone]
- EC50 [1]: > 44.4 µM
- EC50 (poliovirus (PV type 1); HeLa): > 16.7 µg/mL
- EC50 (poliovirus (PV type 1); Vero): > 50 µg/mL
- EC50 (poliovirus (PV type 2); HeLa): 16.7 µg/mL (≈ 34.6 µM)
- EC50 (poliovirus (PV type 2); Vero): ≥ 50 µg/mL
- EC50 (poliovirus (PV type 3); HeLa): 37.6 µg/mL (≈ 78 µM)
- EC50 (poliovirus (PV type 3); Vero): > 50 µg/mL
- CC50 (in vitro [2]): > 150 µg/mL
- CC50 (in vitro [3]): > 50 µg/mL
- CC50 at 72 h [4]: > 44.4 µM

Structure (SMILES): Cc1ccc(-c2nc3c(N4CCN(C(=O)COc5ccc(Cl)cc5)CC4)nc(N)nc3s2)cc1 [Example 295, 1-(4-(5-amino-2-p-tolylthiazolo[5,4-d]pyrimidin-7-yl)piperazin-1-yl)-2-(4-chlorophenoxy)ethanone]
- CC50 [5]: > 50 µg/mL

Structure (SMILES): COCc1nc2c(N3CCN(C(=O)COc4ccc(Cl)cc4)CC3)nc(N)nc2o1 [Example 186, 5-amino-7-[4-(4-chlorophenoxyacetyl)piperazin-1-yl]-2-methoxylmethyloxazolo[5,4-d]pyrimidine]
- EC50 [1]: > 44.4 µM
- EC50 (poliovirus (PV type 1); HeLa): 3.16 µg/mL (≈ 7.3 µM)
- EC50 (poliovirus (PV type 1); Vero): 1.07 µg/mL (≈ 2.47 µM)
- EC50 (poliovirus (PV type 2); HeLa): 9.42 µg/mL (≈ 21.8 µM)
- EC50 (poliovirus (PV type 2); Vero): 2.96 µg/mL (≈ 6.84 µM)
- EC50 (poliovirus (PV type 3); HeLa): 3.21 µg/mL (≈ 7.42 µM)
- EC50 (poliovirus (PV type 3); Vero): 10.7 µg/mL (≈ 24.7 µM)
- CC50 (in vitro [2]): 95.2 µg/mL (≈ 220 µM)
- CC50 (in vitro [3]): > 50 µg/mL
- CC50 at 72 h [4]: > 44.4 µM

Structure (SMILES): Nc1nc(N2CCN(C(=O)COc3ccc(Cl)cc3)CC2)c2nc(CCc3ccc(F)cc3)sc2n1 [Example 49, 1-(4-(5-amino-2-(4-fluorophenethyl)-thiazolo[5,4-d]pyrimidin-7-yl)piperazin-1-yl)-2-(4-chlorophenoxy)ethanone]
- EC50 (HIV-1 strain IIIB; [7]): 1.13 µM
- EC50 (HIV-2 strain (ROD); [7]): > 7.06 µM
- HCV-1a Replicon Selectivity Index [1]: >1.1
- EC50 [1]: 42.1 µM
- EC50 (poliovirus (PV type 1); HeLa): 0.13 µg/mL (≈ 0.247 µM)
- EC50 (poliovirus (PV type 1); Vero): 0.13 µg/mL (≈ 0.247 µM)
- EC50 (poliovirus (PV type 2); HeLa): 0.13 µg/mL (≈ 0.247 µM)
- EC50 (poliovirus (PV type 2); Vero): 0.21 µg/mL (≈ 0.398 µM)
- EC50 (poliovirus (PV type 3); HeLa): > 50 µg/mL
- EC50 (poliovirus (PV type 3); Vero): 1.17 µg/mL (≈ 2.22 µM)
- CC50 (in vitro [6]): > 50 µM
- CC50 (in vitro [2]): 101 µg/mL (≈ 192 µM)
- CC50 (in vitro [3]): > 50 µg/mL
- CC50 at 72 h [4]: > 44.4 µM

Structure (SMILES): Cc1nc(N2CCN(C(=O)COc3ccc(Cl)cc3)CC2)c2nc(Cc3ccc(F)cc3)oc2n1 [Example 171, 2-(4-chlorophenoxy)-1-(4-(2-(4-fluorobenzyl)-5-methyloxazolo[5,4-d]pyrimidin-7-yl)piperazin-1-yl)ethanone]
- EC50 (HIV-1 strain IIIB; [7]): > 29.6 µM
- EC50 (HIV-2 strain (ROD); [7]): > 33 µM
- EC50 (poliovirus (PV type 1); HeLa): > 50 µg/mL
- EC50 (poliovirus (PV type 1); Vero): > 50 µg/mL
- EC50 (poliovirus (PV type 2); HeLa): ≥ 50 µg/mL
- EC50 (poliovirus (PV type 2); Vero): 0.07 µg/mL (≈ 0.141 µM)
- EC50 (poliovirus (PV type 3); HeLa): > 50 µg/mL
- EC50 (poliovirus (PV type 3); Vero): > 50 µg/mL
- CC50 (in vitro [6]): 33 µM
- CC50 (in vitro [2]): 118 µg/mL (≈ 238 µM)
- CC50 (in vitro [3]): 46.1 µg/mL (≈ 93 µM)

Structure (SMILES): Cc1cccc(NC(=O)N2CCN(c3nc(N)nc4sc(-c5ccc(F)cc5)cc34)CC2)c1 [Example 359, 4-(2-amino-6-(4-fluorophenyl)thieno[2,3-d]pyrimidin-4-yl)-N-m-tolylpiperazine-1-carboxamide]
- EC50 (HIV-1 strain IIIB; [7]): 6.18 µM
- EC50 (HIV-2 strain (ROD); [7]): 10.4 µM
- EC50 (poliovirus (PV type 1); HeLa): 0.94 µg/mL (≈ 2.03 µM)
- EC50 (poliovirus (PV type 1); Vero): 0.43 µg/mL (≈ 0.93 µM)
- EC50 (poliovirus (PV type 2); HeLa): 0.41 µg/mL (≈ 0.886 µM)
- EC50 (poliovirus (PV type 2); Vero): 0.21 µg/mL (≈ 0.454 µM)
- EC50 (poliovirus (PV type 3); HeLa): 1.07 µg/mL (≈ 2.31 µM)
- EC50 (poliovirus (PV type 3); Vero): 0.73 µg/mL (≈ 1.58 µM)
- CC50 (in vitro [6]): 140 µM
- CC50 (in vitro [2]): > 150 µg/mL
- CC50 (in vitro [3]): > 50 µg/mL

Structure (SMILES): Cc1nc(N2CCN(C(=O)COc3ccc(Cl)cc3)CC2)c2cc(-c3ccc(F)cc3)sc2n1 [Example 325, 2-(4-chlorophenoxy)-1-(4-(6-(4-fluorophenyl)-2-methylthieno[2,3-d]pyrimidin-4-yl)piperazin-1-yl)ethanone]
- EC50 (HIV-1 strain IIIB; [7]): > 208 µM
- EC50 (HIV-2 strain (ROD); [7]): > 208 µM
- EC50 (poliovirus (PV type 1); HeLa): > 50 µg/mL
- EC50 (poliovirus (PV type 1); Vero): > 50 µg/mL
- EC50 (poliovirus (PV type 2); HeLa): ≥ 50 µg/mL
- EC50 (poliovirus (PV type 2); Vero): > 50 µg/mL
- EC50 (poliovirus (PV type 3); HeLa): > 50 µg/mL
- EC50 (poliovirus (PV type 3); Vero): > 50 µg/mL
- CC50 (in vitro [6]): 208 µM
- CC50 (in vitro [2]): 67.8 µg/mL (≈ 136 µM)
- CC50 (in vitro [3]): > 50 µg/mL

Structure (SMILES): CCOC(=O)c1nc(N2CCN(C(=O)Nc3cccc(C)c3)CC2)c2cc(-c3ccc(F)cc3)sc2n1 [Example 361, ethyl 6-(4-fluorophenyl)-4-(4-(m-tolylcarbamoyl)piperazin-1-yl)thieno[2,3-d]pyrimidine-2-carboxylate]
- EC50 (HIV-1 strain IIIB): ≥ 156 µM
- EC50 (HIV-2 strain (ROD)): ≥ 156 µM
- EC50 (poliovirus (PV type 1); HeLa): > 50 µg/mL
- EC50 (poliovirus (PV type 1); Vero): > 50 µg/mL
- EC50 (poliovirus (PV type 2); HeLa): ≥ 50 µg/mL
- EC50 (poliovirus (PV type 2); Vero): > 50 µg/mL
- EC50 (poliovirus (PV type 3); HeLa): > 50 µg/mL
- EC50 (poliovirus (PV type 3); Vero): > 50 µg/mL
- CC50 (in vitro [6]): 156 µM
- CC50 (in vitro [2]): 61.7 µg/mL (≈ 119 µM)
- CC50 (in vitro [3]): > 50 µg/mL
